13 compounds from patent US12459951B2, “Compounds that interact with RAS superfamily proteins for treatment of cancers, inflammatory diseases, rasopathies, and fibrotic disease” (SHY Therapeutics, LLC, priority 2022, dated 2025) can be followed below.

The subject of one assay is Erk1/2 phosphorylation. The experiment in a line: Erk1/2 Phosphorylation Assay (western blot), Panc-1. The note with it: at 10 μM, * = activation. It counts as cell-based, human. In a few lines: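 Phospho-Erk1/2 (Thr202/Tyr204) was detected by western blot in lysates of Panc-1 cells (KRas G12D). These had 6 h, 37° C exposure to 10 μM compound or a dilution series for IC50, in 0.3% DMSO. Cells were either starved overnight in 0.5% FBS with a 15-min 1.5 ng/ml EGF pulse, or kept unstimulated in 10% FBS.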
In general terms: In western blotting, separated proteins are transferred to a membrane and probed.

Another assay relates to IL6. The experiment in a line: IL-6 Quantification Assay (ELISA), LPS-stimulated RAW 264.7. It counts as cell-based. Further details: inhibition: dose or concentration left out as unconfirmed. The note with it: Mus musculus, RAW264.7; read-out: IL-6: % inh.
For the next assay, the system named is TNF-alpha. Description: TNF-alpha Quantification Assay (ELISA), LPS-stimulated RAW 264.7. The assay is classed as cell-based. To be noted: Mus musculus, RAW264.7; at 10 μM; read-out: TNFα: % inh. Background: An ELISA detects its analyte on a solid surface through an enzyme-linked reagent.

With `COc1cc(-c2cn3nc(-c4nccn4C)nc(N[C@@H]4CC[C@H](OC)C4)c3c2C)ccn1` (racemic) [Compound 164, rac N-((1R,3S)-3-Methoxycyclopentyl)-6-(2-methoxypyridin-4-yl)-5-methyl-2-(1-methyl-1H-imidazol-2-yl)pyrrolo[2,1-f][1,2,4]triazin-4-amine], the “% inh of Erk1/2 phosphorylation in Panc-1” value (“% inh” below) in the assay on Erk1/2 phosphorylation was “A* (1-25% activation)”. Besides, in the assay with IL6, the inhibition is 75 to 100%. Also, the inhibition at 10 µM in the assay on TNF-alpha is 1 to 24%.

As to `CO[C@H]1CC[C@@H](Nc2nc(-c3nccn3C)nn3cc(-c4cccnc4)c(C)c23)C1` (racemic) [Compound 155, rac N-((1R,3S)-3-methoxy-cyclopentyl)-5-methyl-2-(1-methyl-1H-imidazol-2-yl)-6-(pyridin-3-yl)pyrrolo[2,1-f][1,2,4]triazin-4-amine], the “% inh” value with Erk1/2 phosphorylation is on record as “A* (1-25% activation)”. Moreover, the inhibition in the assay on IL6 was in the range of 25 to 49%. In addition, the inhibition at 10 µM with TNF-alpha came out at 0%.

As for `COc1cc(-c2cn3nc(-c4nccn4C)nc(N[C@H]4C[C@@H](OC)C4)c3c2C)ccn1` [Compound 162, N-((1s,3s)-3-Methoxycyclobutyl)-6-(2-methoxypyridin-4-yl)-5-methyl-2-(1-methyl-1H-imidazol-2-yl)pyrrolo[2,1-f][1,2,4]triazin-4-amine], in the assay on Erk1/2 phosphorylation, the “% inh” value is “A (1-25% inhibition)”. Further, the inhibition in the assay on IL6 was 25 to 49%. Further, the inhibition at 10 µM with TNF-alpha lay in the range of 25 to 49%.

Turning to `CO[C@H]1C[C@H](Nc2nc(-c3nccn3C)nn3cc(-c4cccnc4)c(-c4ccccn4)c23)C1` [Compound 168, N-((1r,3r)-3-Methoxycyclobutyl)-2-(1-methyl-1H-imidazol-2-yl)-5-(pyridin-2-yl)-6-(pyridin-3-yl)pyrrolo[2,1-f][1,2,4]triazin-4-amine], the “% inh” value in the assay on Erk1/2 phosphorylation is 0 (0% inhibition). Moreover, the inhibition with IL6 lay within 1 to 24%. Moreover, in the assay with TNF-alpha, the inhibition at 10 µM was in the range of 25 to 49%.

For the compound `Cc1c(-c2ccn(C3CC3)n2)cn2nc(-c3nccn3C)nc(Nc3cc(OCC(F)(F)F)ccn3)c12` [Compound 140, 6-(1-Cyclopropyl-1H-pyrazol-3-yl)-5-methyl-2-(1-methyl-1H-imidazol-2-yl)-N-(4-(2,2,2-trifluoroethoxy)pyridin-2-yl)pyrrolo[2,1-f][1,2,4]triazin-4-amine], the “% inh” value in the assay with Erk1/2 phosphorylation is listed as “D* (85-100% activation)”. Besides, the inhibition in the assay with IL6 is 50 to 74%. Further, the inhibition at 10 µM in the assay on TNF-alpha stood at 0%.

As for `CO[C@H]1CC[C@@H](Nc2nc(-c3ccccn3)nn3cc(-c4ccn(C(C)C)n4)c(C)c23)C1` (racemic) [Compound 9, rac 6-(1-Isopropyl-1H-pyrazol-3-yl)-N-((1R,3S)-3-methoxycyclopentyl)-5-methyl-2-(pyridin-2-yl)pyrrolo[2,1-f][1,2,4]triazin-4-amine], the “% inh” value in the assay with Erk1/2 phosphorylation is given as 0 (0% inhibition). Besides, the inhibition with IL6 lay within 1 to 24%. Moreover, the inhibition at 10 µM in the assay on TNF-alpha was determined as 0%.

For the compound `COc1ccnc(Nc2nc(-c3nccn3C)nn3cc(-c4ccn(C(F)F)n4)c(C)c23)n1` [Compound 95, 6-(1-(Difluoromethyl)-1H-pyrazol-3-yl)-N-(4-methoxypyrimidin-2-yl)-5-methyl-2-(1-methyl-1H-imidazol-2-yl)pyrrolo[2,1-f][1,2,4]triazin-4-amine], in the assay on Erk1/2 phosphorylation, the “% inh” value was “D* (85-100% activation)”. In addition, the inhibition in the assay on IL6 was 1 to 24%. Moreover, in the assay on TNF-alpha, the inhibition at 10 µM was in the range of 1 to 24%.

Take `Cc1c(-c2ccn(C)n2)cn2nc(-c3nccn3C)nc(Nc3nnco3)c12.Cl` [Compound 119, N-(5-Methyl-2-(1-methyl-1H-imidazol-2-yl)-6-(1-methyl-1H-pyrazol-3-yl)pyrrolo[2,1-f][1,2,4]triazin-4-yl)-1,3,4-oxadiazol-2-amine hydrochloride salt]: the “% inh” value with Erk1/2 phosphorylation is on record as “A* (1-25% activation)”. Also, the inhibition in the assay on IL6 fell in the range of 50 to 74%. Also, the inhibition at 10 µM in the assay on TNF-alpha is 25 to 49%.

As for `COc1cccnc1Nc1nc(-c2nccn2C)nn2cc(-c3ccn(C)n3)c(C)c12` [Compound 112, N-(3-Methoxypyridin-2-yl)-5-methyl-2-(1-methyl-1H-imidazol-2-yl)-6-(1-methyl-1H-pyrazol-3-yl)pyrrolo[2,1-f][1,2,4]triazin-4-amine], in the assay on Erk1/2 phosphorylation, the “% inh” value is on record as “A* (1-25% activation)”. Besides, in the assay on IL6, the inhibition was 25 to 49%. Also, the inhibition at 10 µM with TNF-alpha stood at 0%.

In the case of `COCCO[C@H]1C[C@H](Nc2nc(-c3nccn3C)nn3cc(-c4cccnc4)c(C)c23)C1` [Compound 152, N-((1r,3r)-3-(2-methoxyethoxy)cyclo-butyl)-5-methyl-2-(1-methyl-1H-imidazol-2-yl)-6-(pyridin-3-yl)pyrrolo[2,1-f][1,2,4]triazin-4-amine], the “% inh” value with Erk1/2 phosphorylation was “B* (26-49% activation)”. Besides, the inhibition in the assay with IL6 lay in the range of 1 to 24%. Also, in the assay on TNF-alpha, the inhibition at 10 µM was found to be 0%.

For `Cc1c(-c2ccn(C)n2)cn2nc(-c3nccn3C)nc(Nc3cn(C(C)C)nn3)c12` [Compound 109, N-(1-Isopropyl-1H-1,2,3-triazol-4-yl)-5-methyl-2-(1-methyl-1H-imidazol-2-yl)-6-(1-methyl-1H-pyrazol-3-yl)pyrrolo[2,1-f][1,2,4]triazin-4-amine], in the assay on Erk1/2 phosphorylation, the “% inh” value is recorded as “B* (26-49% activation)”. Besides, in the assay on IL6, the inhibition lay within 50 to 74%. In addition, the inhibition at 10 µM with TNF-alpha was found to be 0%.

As for `COc1cnc(Nc2nc(-c3nccn3C)nn3cc(-c4ccn(C)n4)c(C)c23)cn1` [Compound 110, N-(5-Methoxypyrazin-2-yl)-5-methyl-2-(1-methyl-1H-imidazol-2-yl)-6-(1-methyl-1H-pyrazol-3-yl)pyrrolo[2,1-f][1,2,4]triazin-4-amine], the “% inh” value in the assay with Erk1/2 phosphorylation is on record as “B* (26-49% activation)”. Besides, in the assay on IL6, the inhibition lay within 1 to 24%. Besides, the inhibition at 10 µM with TNF-alpha was 1 to 24%.

For the compound `Cc1c(-c2ccn(C(C)C)n2)cn2nc(-c3nccn3C)nc(Nc3nccn3C)c12` [Compound 93, 6-(1-Isopropyl-1H-pyrazol-3-yl)-5-methyl-N,2-bis(1-methyl-1H-imidazol-2-yl)pyrrolo[2,1-f][1,2,4]triazin-4-amine], the “% inh” value with Erk1/2 phosphorylation is reported as “D (85-100% inhibition)”. In addition, the inhibition with IL6 is 75 to 100%. The inhibition at 10 µM with TNF-alpha is 75 to 100%.
